Assays:
[1] = Antioxidant activity assessed as DPPH free radical scavenging activity at 200 uM incubated for 60 mins by spectrophotometric method relative to control; assay type: functional
[2] = Photoprotection activity against UV radiation
[3] = Thermal stability of compound in DMSO/methanol assessed as onset temperature by UV spectroscopic method; assay type: physicochemical
[4] = Thermal stability of compound in DMSO/methanol assessed as decomposition temperature by UV spectroscopic method; assay type: physicochemical
[5] = Antioxidant activity assessed as DPPH free radical scavenging activity at 400 uM incubated for 60 mins by spectrophotometric method relative to control; assay type: functional
[6] = Antioxidant activity assessed as DPPH free radical scavenging activity at 100 uM incubated for 60 mins by spectrophotometric method relative to control; assay type: functional
[7] = Antioxidant activity assessed as DPPH free radical scavenging activity at 300 uM incubated for 60 mins by spectrophotometric method relative to control; assay type: functional
[8] = Photoprotection activity against UV radiation assessed as ratio of UVA to UVB
[9] = Thermal stability of compound in DMSO/methanol assessed as mass loss by UV spectroscopic method; assay type: physicochemical; details: read-out: Drug degradation

In the case of `O=C(N/N=C/c1ccc(Oc2nc(Oc3ccc(/C=N/NC(=O)c4ccccc4O)cc3)nc(Oc3ccc(/C=N/NC(=O)c4ccccc4O)cc3)n2)cc1)c1ccccc1O`, the Activity [1] is reported as 0%, the SPF [2] is reported as 17 and the UVAPF [2] is reported as 13. The T [3] was 264.89 °C, the T [4] was 269.71 °C and the Activity [5] was 0.8%. For the same molecule, the Activity [6] was 0%, the Activity [7] was 0.3% and the Ratio [8] was 0.7. The degraded [9] was 19.6%.
With `O=C(N/N=C/c1ccc(Oc2nc(Oc3ccc(/C=N/NC(=O)c4ccccc4)cc3)nc(Oc3ccc(/C=N/NC(=O)c4ccccc4)cc3)n2)cc1)c1ccccc1` the Activity [1] was 1.3%, the SPF [2] was 9 and the UVAPF [2] was 5. The T [3] was 275.89 °C, the T [4] was 294.21 °C and the Activity [5] was 2.4%. For the same molecule, the Activity [6] was 0.9%, the Activity [7] was 2% and the Ratio [8] was 0.6. The degraded [9] was 36.7%.
Molecule `O=C(N/N=C/c1ccc(Oc2nc(Oc3ccc(/C=N/NC(=O)c4ccc([N+](=O)[O-])cc4)cc3)nc(Oc3ccc(/C=N/NC(=O)c4ccc([N+](=O)[O-])cc4)cc3)n2)cc1)c1ccc([N+](=O)[O-])cc1` has an Activity [1] of 2.2%, an SPF [2] of 4 and a UVAPF [2] of 3. For the same molecule, the T [3] was 291.8 °C, the T [4] was 304.87 °C and the Activity [5] was 3.5%. The Activity [6] was 0.5%, the Activity [7] was 2.7% and the Ratio [8] was 0.8. For the same molecule, the degraded [9] was 37.3%.
`CC(C)(C)c1ccc(C(=O)N/N=C/c2ccc(Oc3nc(Oc4ccc(/C=N/NC(=O)c5ccc(C(C)(C)C)cc5)cc4)nc(Oc4ccc(/C=N/NC(=O)c5ccc(C(C)(C)C)cc5)cc4)n3)cc2)cc1` showed an Activity [1] of 4.3%, an SPF [2] of 14 and a UVAPF [2] of 7. The T [3] was 324.37 °C, the T [4] was 326.22 °C and the Activity [5] was 5.9%. It also gave an Activity [6] of 4%, an Activity [7] of 4.8% and a Ratio [8] of 0.5. For the same molecule, the degraded [9] was 41.2%.
Molecule `O=C(N/N=C/c1ccc(Oc2nc(Oc3ccc(/C=N/NC(=O)c4ccncc4)cc3)nc(Oc3ccc(/C=N/NC(=O)c4ccncc4)cc3)n2)cc1)c1ccncc1` has an Activity [1] of 0.5%, an SPF [2] of 5 and a UVAPF [2] of 3. For the same molecule, the T [3] was 235.6 °C, the T [4] was 236.25 °C and the Activity [5] was 6.1%. The Activity [6] was 0%, the Activity [7] was 2.4% and the Ratio [8] was 0.4. For the same molecule, the degraded [9] was 36.8%.
Work on `O=C(N/N=C/c1ccc(Oc2nc(Oc3ccc(/C=N/NC(=O)c4cccc(O)c4)cc3)nc(Oc3ccc(/C=N/NC(=O)c4cccc(O)c4)cc3)n2)cc1)c1cccc(O)c1` yielded an Activity [1] of 4.4%, an SPF [2] of 4 and a UVAPF [2] of 2. The T [3] was 248.22 °C, the T [4] was 297.87 °C and the Activity [5] was 6.3%. It also gave an Activity [6] of 4.2%, an Activity [7] of 5.8% and a Ratio [8] of 0.4. It also gave a degraded [9] of 18.7%.
With `CCCCC(CC)COC(=O)c1ccc(Nc2nc(Nc3ccc(C(=O)OCC(CC)CCCC)cc3)nc(Nc3ccc(C(=O)OCC(CC)CCCC)cc3)n2)cc1` (stereo not given) the Activity [1] was 1.6%, the SPF [2] was 3 and the UVAPF [2] was 3. For the same molecule, the T [3] was 119.99 °C, the T [4] was 232.29 °C and the Activity [5] was 3.5%. The Activity [6] was 0%, the Activity [7] was 2.6% and the Ratio [8] was 0.8. For the same molecule, the degraded [9] was 68.7%.
In the case of `Oc1ccc(/C=C/c2cc(O)cc(O)c2)cc1` [RESVERATROL], the Activity [1] is reported as 55.9%, the SPF [2] is reported as 2 and the UVAPF [2] is reported as 2. For the same molecule, the T [3] was 263.46 °C, the T [4] was 266.95 °C and the Activity [5] was 62.2%. For the same molecule, the Activity [6] was 46.8%, the Activity [7] was 56.2% and the Ratio [8] was 0.7. The degraded [9] was 32.9%.
Molecule `O=C(N/N=C/c1ccc(Oc2nc(Oc3ccc(/C=N/NC(=O)c4ccc(O)cc4)cc3)nc(Oc3ccc(/C=N/NC(=O)c4ccc(O)cc4)cc3)n2)cc1)c1ccc(O)cc1` has an Activity [1] of 5.6%, an SPF [2] of 7 and a UVAPF [2] of 4. The T [3] was 267.35 °C, the T [4] was 272.15 °C and the Activity [5] was 8.2%. It also gave an Activity [6] of 4.4%, an Activity [7] of 6.7% and a Ratio [8] of 0.5. For the same molecule, the degraded [9] was 11.6%.
With `O=C(N/N=C/c1ccc(Oc2nc(Oc3ccc(/C=N/NC(=O)c4ccc(O)cc4O)cc3)nc(Oc3ccc(/C=N/NC(=O)c4ccc(O)cc4O)cc3)n2)cc1)c1ccc(O)cc1O` the Activity [1] was 74.2%, the SPF [2] was 3 and the UVAPF [2] was 2. It also gave a T [3] of 218.88 °C, a T [4] of 309.94 °C and an Activity [5] of 75.6%. For the same molecule, the Activity [6] was 55.3%, the Activity [7] was 75.1% and the Ratio [8] was 0.5. It also gave a degraded [9] of 39.8%.

Source: ChEMBL document CHEMBL4406909, “Synthesis and evaluation of 1,3,5-triazine derivatives as sunscreens useful to prevent skin cancer” (Bioorg Med Chem Lett, 2019)
